≈ marks a conversion by molar mass, not a printed value. Like-named read-outs stand apart in the source and are kept apart here.

The nature of series [1]: YF476 serum concentrations and bioavailability in healthy subjects (background). It counts as in vivo, human. The text has this:
Bioavailability can be improved by preparing and administering a formulation of amorphous YF476, but this requires stabilisation such as in the form of a solid dispersion on hydroxypropyl methyl cellulose by spray-drying. Even with this processing, bioavailability of YF476 was still low. […] However, it would be beneficial to provide a CCK2/gastrin receptor antagonist where administration with food is not required.

Series [2] deals with T1, CCK2 (human) (Homo sapiens, UniProt P32239).
T1 sequence (P32239 1-447): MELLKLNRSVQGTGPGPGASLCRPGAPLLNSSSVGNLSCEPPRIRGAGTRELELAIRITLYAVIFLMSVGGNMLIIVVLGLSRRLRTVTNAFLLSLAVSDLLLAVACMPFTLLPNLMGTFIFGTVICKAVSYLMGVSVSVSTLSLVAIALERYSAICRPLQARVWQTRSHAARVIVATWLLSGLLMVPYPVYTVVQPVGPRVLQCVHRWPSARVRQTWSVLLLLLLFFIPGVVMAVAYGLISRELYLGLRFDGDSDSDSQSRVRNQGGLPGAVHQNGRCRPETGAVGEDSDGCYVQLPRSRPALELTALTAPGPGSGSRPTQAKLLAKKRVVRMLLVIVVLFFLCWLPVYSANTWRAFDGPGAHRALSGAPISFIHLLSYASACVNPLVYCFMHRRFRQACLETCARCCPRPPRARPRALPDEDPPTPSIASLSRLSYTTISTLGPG
To be noted: cited from earlier work.

Series [3] in a line: Aqueous solubility study in Britton-Robinson's buffer (HPLC-UV). The format is physicochemical. The note with it: aqueous buffer, thermodynamic from solid, ambient temperature overnight. How it is done:
The test compound (2.5 mg of solid; n=1) was weighed in a clear glass vial and Britton-Robinson's buffer (0.5 mL) was added (pH 2.01, pH 3.06, pH 4.06, pH 5.08, pH 5.99, pH 6.98, and pH 8.16). The solution was agitated at ambient temperature overnight using a vial roller system, and then filtered (0.45 μm pore size; without pre-saturation). Two aliquots (50 μL) were sampled from the filtrate and diluted with one volume of 0.1 N hydrochloric acid and methanol (1:1 v/v) before analysis by HPLC-UV. A standard was prepared in DMSO at 10 mg/mL (n=1) which was then diluted 10-fold in 0.1 N hydrochloric acid and methanol (1:1 v/v) to give a 1 mg/mL solution. The concentration of test compound in the filtrate was quantified relative to the concentration standard.
Analysis was done using a gradient HPLC-UV system with a total cycle time of 6 min. The UV detection between 220 nm and 300 nm was done using a photodiode array detector.
The values given in the table above are for crystalline YF476 and (TR2-A) and amorphous (TR1).

The test system of series [4] is AGSGR cells (gastric adenocarcinoma cell line transfected with human gastrin/CCK2 receptor gene). As to the kind of experiment: Sulphorhodamine-B (SRB) proliferation assay, G17-treated cells. It counts as cell-based. To be noted: G17 10 nM. How it is done:
The potency of (TR2) and (TR3) was tested in a sulphorhodamine-B (SRB) proliferation assay in a human gastric adenocarcinoma cell line stably transfected with the human gastrin/CCK2 receptor gene (AGSGR). SRB is a fluorescent dye that binds to proteins, so cells with a high rate of protein synthesis (proliferative cells) will show high levels of fluorescence in the SRB assay. […] (TR2) and (TR3) were compared with the positive controls YF476 and YM022.

For series [5], the target named is T1, CCK2 (human). As to the kind of experiment: CCK2 receptor functional assay (antagonist effect, cAMP, HTRF). The note with it: for IC50 / Kb: stimulus CCK-8s 10 nM, 10 min 37° C., CHO cells; for IC50: read-out: CCK2 IC50; for Kb: read-out: CCK2 KB. Details: expressed in transfected cells; host or cells: CHO cells. The format is cell-based. The source says:
(§1) (TR2) and (TR3) were compared with YF476 and YM022 in CCK1 and CCK2 receptor functional assays with the following assay criteria.
(§2) The potency of the antagonists is expressed as IC50, the concentration of antagonist that causes a half-maximum inhibition of the control agonist response. The affinity of the antagonist for the receptor is expressed as KB, the concentration of antagonist, which would occupy 50% of the receptors at equilibrium.

The next series addresses T2, CCK1 (human) (Homo sapiens, UniProt P32238).
T2 construct: expressed in transfected cells; host or cells: CHO cells
T2 sequence (P32238 1-428): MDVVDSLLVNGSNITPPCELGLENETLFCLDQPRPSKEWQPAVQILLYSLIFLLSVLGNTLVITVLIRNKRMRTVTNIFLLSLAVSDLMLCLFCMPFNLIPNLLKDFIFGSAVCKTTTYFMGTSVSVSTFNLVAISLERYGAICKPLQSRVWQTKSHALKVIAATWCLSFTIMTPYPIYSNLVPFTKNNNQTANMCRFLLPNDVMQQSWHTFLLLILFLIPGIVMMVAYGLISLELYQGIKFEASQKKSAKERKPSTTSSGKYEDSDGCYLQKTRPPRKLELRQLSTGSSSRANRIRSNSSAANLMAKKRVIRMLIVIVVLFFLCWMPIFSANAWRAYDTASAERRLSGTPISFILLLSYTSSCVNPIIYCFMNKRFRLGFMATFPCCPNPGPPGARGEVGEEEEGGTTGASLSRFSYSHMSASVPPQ
As to the kind of experiment: CCK1 receptor functional assay (antagonist effect, cAMP, HTRF). The format is cell-based. To be noted: stimulus CCK-8s 300 nM, 10 min 37° C., CHO cells.
Excerpt: as §1, §2

A short description of series [6]: Pharmacokinetics in healthy subjects, single oral dose, API in capsule. To be noted: human, in vivo, po, 100 mg. The procedure:
In an initial study, healthy volunteers took a single oral dose of 100 mg (TR2) as an active pharmaceutical ingredient (API) in a capsule. Plasma concentrations were measured.
In further clinical studies, healthy volunteers (n=8) took single oral doses of 5, 15, 50 and 100 mg (TR2) as an active pharmaceutical ingredient (API) in a capsule. (Capsule formulation TR2 powder (API) in a hard gelatin capsule, no excipients, no processing). Plasma concentrations were measured.
Healthy volunteers (n=8) took single oral doses of 5, 15, 25 and 50 mg (TR2-A) as API in a capsule (TR2-A (crystalline) in hard gelatin capsule with no excipient, no processing of the API). Plasma concentrations of (TR2) and (TR2-A) were measured. The area under the curve of plasma concentrations of (TR2) after a single oral dose of 50 mg of (TR2-A) API (AUC0-24 h=212.5) was about the same as that observed for a similar formulation of a single oral dose of (TR2) 100 mg (AUC0-24 h=241.5).

Series [7] has as its system pentagastrin-stimulated gastric acid secretion. As to the kind of experiment: Pentagastrin-stimulated gastric acid secretion in conscious rats with a chronic gastric fistula. To be noted: Rattus norvegicus, sc, read-out: ED50, inhibition of pentagastrin-stimulated gastric acid secretion. It counts as in vivo. How it is done: The effect of subcutaneous injections of YF476, (TR2) and (TR3) on pentagastrin-stimulated gastric acid secretion was tested in conscious rats with a chronic gastric fistula.

For the next series, the system named is panel of 80 receptors. As to the kind of experiment: Receptor binding screen, radiolabelled ligands, scintillation counting. The note with it: other than CCK2 and CCK1. The procedure:
The potential of (TR2) and (TR3) to bind to other cellular and nuclear receptors was tested in a panel of 80 receptors. The assay used radiolabelled receptor ligands (agonist or antagonist, depending on the receptor), and the ability of the test compounds to inhibit ligand binding was measured by scintillation counting.

Series [8] concerns gastrin-stimulated acid secretion. The note with it: oral, healthy men; cited from earlier work.
For series [9] the following is noted: in vivo; cited from earlier work.
The conditions of series [10]: cited from earlier work.
Another series relates to panic attacks. To be noted: patients; cited from earlier work.

As to `CNc1cccc(NC(=O)N[C@@H]2N=C(c3ccccn3)c3ccccc3N(CC(=O)C(C)(C)C)C2=O)c1` [YF476, reference compound], the “Increase of bioavailability by food” value in series [1] is 1.6 fold. Further, the Serum concentrations entry in series [1] (crystalline form) is “extremely low and very variable”. Besides, at CCK2 (human) [2] (Semple et al. 1997), the “More selective for CCK2 receptors than for CCK1 receptors (compared with YM022)” value was 5 fold. Besides, the solubility in series [3] (pH 2.01, Britton-Robinson's buffer) amounted to 2650 µg/mL (≈ 5320 µM); in [3] (pH 3.06, Britton-Robinson's buffer), 99.7 µg/mL (≈ 200 µM); in [3] (pH 4.06, Britton-Robinson's buffer) it was 5.9 µg/mL (≈ 11.8 µM); in series [3] (pH 5.08, Britton-Robinson's buffer), 1.4 µg/mL (≈ 2.81 µM); in series [3] (pH 5.99, Britton-Robinson's buffer), 1.3 µg/mL (≈ 2.61 µM); in series [3] (pH 6.98, Britton-Robinson's buffer) it was 1.4 µg/mL (≈ 2.81 µM). The compound further registered a solubility in series [3] (pH 8.16, Britton-Robinson's buffer) of 1.5 µg/mL (≈ 3.01 µM). The “Inhibition of the anti-proliferative effects of G17” value (“Inhibition … of G17” for short) in [4] (compound 100 nM) is given as “completely inhibited”. Also, at CCK2 (human) [5], the “Selectivity IC50 (CCK1)/IC50 (CCK2)” value was found to be 308. The “Selectivity KB (CCK1)/KB (CCK2)” value at CCK2 (human) [5] is reported as 375. The IC50 at CCK2 (human) [5] stood at 0.52 nM; against CCK1 (human), 160 nM. Besides, the Kb at CCK2 (human) [5] is 0.064 nM. Further, the AUC in series [6] was 198 ng·h/mL. The same compound came in with an area under the curve AUC(0-t) in [6] of 81.3 ng·h/mL. The median effective dose (ED50) in series [7] (subcutaneous injection, conscious rats) stood at 0.012 µmol/kg.

As for `CNc1cccc(NC(=O)N[C@@H]2N=C(c3ccccn3)c3ccccc3N(CC(=O)C(C)(C)CO)C2=O)c1` [TR2, (R)-1-[1-(4-Hydroxy-3,3-dimethyl-2-oxo-butyl)-2-oxo-5-pyridin-2-yl-2,3-dihydro-1H-benzo[e][1,4]diazepin-3-yl]-3-(3-methylamino-phenyl)-urea], the “Binding to other cellular and nuclear receptors (inhibition of ligand binding)” value in the series with panel of 80 receptors is reported as “No significant receptor binding”. For the same compound, the “Inhibition … of G17” value in [4] (compound 100 nM) is “completely inhibited”. In addition, on CCK2 (human) [5], the “Selectivity IC50 (CCK1)/IC50 (CCK2)” value is given as 400, the “Selectivity KB (CCK1)/KB (CCK2)” value is recorded as 484, the IC50 worked out at 2.5 nM and the antagonist equilibrium constant (Kb) was 0.31 nM. For the same compound, at CCK2 (human) [5] (relative to YF476), the “Affinity for the CCK2 receptor, fold lower than that of YF476” value is given as “about 5 fold” and the “Selectivity for CCK2 over CCK1 receptor, higher than the selectivity of YF476” value is recorded as 30%. The “Potency in CCK2 assay, fold less potent than YF476 and YM022” value on CCK2 (human) [5] (relative to YF476 and YM022) is “about 5 fold”. The “Affinity for the CCK2 receptor relative to YM022” value on CCK2 (human) [5] (relative to YM022) is on record as “twice that of YM022”. The same compound yielded an IC50 against CCK1 (human) of 1000 nM. Besides, in series [6], the exposure (AUC) is 439 ng·h/mL, the AUC(0-t) stood at 242 ng·h/mL and the “Mean AUC0-24 h of plasma concentrations” value stood at 241.5 ng·h/mL. The ED50 in [7] turned out to be 0.03 µmol/kg.

As to `CNc1cccc(NC(=O)N[C@H]2N=C(c3ccccn3)c3ccccc3N(CC(=O)C(C)(C)CO)C2=O)c1` [TR3], in the series on panel of 80 receptors, the “Binding to other cellular and nuclear receptors (inhibition of ligand binding)” value was “No significant receptor binding”. Also, the “Inhibition … of G17” value in [4] (compound 500 nM) is reported as “had the same effect”. On CCK2 (human) [5], the “Selectivity IC50 (CCK1)/IC50 (CCK2)” value was determined as 86, the “Selectivity KB (CCK1)/KB (CCK2)” value is given as 108, the 50% inhibitory concentration (IC50) was found to be 99 nM and the antagonist equilibrium constant (Kb) came to 12 nM. Moreover, inhibition against CCK1 (human) was half-maximal at 8500 nM (IC50). Also, in series [7], the ED50 was 0.3 µmol/kg.

`Cc1cccc(NC(=O)N[C@@H]2N=C(c3ccccc3)c3ccccc3N(C)C2=O)c1` [L-365,260]: the “Inhibition of gastrin-stimulated acid secretion” value in series [8] is “only modest and short lasting inhibition”. Also, on CCK2 (human) [2], the “Affinity at CCK2 receptors” value was “nanomolar” and the “Selectivity versus the CCK1 receptor” value was 140 fold. The Oral bioavailability entry in [9] was “poor”. Further, the Aqueous solubility entry in series [10] is recorded as “low”. Besides, the Limiting panic attacks entry with panic attacks is given as “ineffective”.
